Assay results reported in patent US20260015311A1, “AMINO LIPID COMPOUND, PREPARATION METHOD THEREFOR, AND USE THEREOF” (SHENZHEN SHENXIN BIOTECHNOLOGY CO., LTD., priority 2022, published 2026).

Key:
[1] = system: Fluc mRNA; experiment: In vivo delivery of luciferase mRNA (Fluc mRNA) by lipid nanoparticles, living imaging; set-up: species or system BALB/c mice; details: after 12 hours, total fluorescence
Protocol: (§1) The amino lipid compounds of the present disclosure were mixed with DOPE, cholesterol, and PEG2000-DMG in a molar ratio of 45:10:42.5:2.5 and dissolved in absolute ethanol. By using a microinjection pump, the resultant ethanol solution and a sodium acetate solution (50 mM, pH=4.0) were mixed in a ratio of 1:3 in a microfluidic chip to prepare a crude solution of lipid nanoparticles, which were then dialyzed in 1×PBS at a controlled temperature of 4° C. for 6 h using a dialysis box (Fisher, MWCO 20,000), and filtered through a 0.22 μm microporous filter membrane before use.
(§2) The formulation method was the same as the formulation method 1, except that the molar ratio of the amino lipid compounds to DSPC, cholesterol and PEG2000-DMG was 50:10:38.5:1.5.
The lipid nanoparticles prepared according to the above formulation method 1 or 2 were used in the biological experiments below for evaluating the performances of in vivo delivery of luciferase mRNA (Fluc mRNA). For the lipid nanoparticles obtained in the formulation method 1, the mass ratio of the amino lipid compounds to the luciferase mRNA was about 10:1, and the lipid nanoparticles were administered subcutaneously; and the lipid nanoparticles obtained in the formulation method 2 were administered by tail vein and intramuscular injection.
6-week-old female BALB/c mice weighed about 20 g were selected and fed in a SPF-grade feeding room. Animal tests were conducted strictly according to the guidelines of National Health institutions and the requirements of animal ethics.
(§3) 9 mice were assigned randomly to each group and injected with the lipid nanoparticles at a dosage of 0.5 mg/kg by three administration routes, i.e., subcutaneous, intramuscular and tail vein injection (three mice for each administration route). After 12 hours, D-luciferin potassium salt (200 μL, 10 mg/mL) was injected into each mouse through the tail vein. After 10 minutes, the total fluorescence intensity of each mouse was observed on a living imaging system (IVIS-200, Xenogen) and taken photographs for record. The expression intensities of Fluc mRNA delivered by representative amino lipid compounds through the three administration routes are shown in Table 2-4. MC3 was used as a control and SM102 was used as a comparative compound.

[2] = system: OVA protein; experiment: In vivo delivery of ovalbumin mRNA and immunity, IgG ELISA; set-up: species or system BALB/c mice; details: OVA mRNA LNP, injected intramuscularly 0.5 mg/kg Day 0 and Day 7, serum Day 21, FIG. 1
Protocol: as §1, with “compounds of formula (I)” for “compounds”, “of 50:10:38.5:1.5” for “of 45:10:42.5:2.5”, “ethanol. Ovalbumin mRNA (OVA mRNA) was dissolved in a sodium acetate solution (50 mM, pH=4.0).” for “ethanol.”, “and the” for “and a”
The mass ratio of the amino lipid compounds to the ovalbumin mRNA (OVA mRNA) in the obtained lipid nanoparticles was about 10:1.
6-week-old female BALB/c mice weighed about 20 g were selected and fed in a SPF-grade feeding room. Animal tests were conducted strictly according to the guidelines of National Health institutions and the requirements of animal ethics. […]
A flat-bottomed 96-well plate (Nunc) was pre-coated with OVA protein at a concentration of 0.5 μg protein per well in a 50 mM carbonate buffer (pH 9.6) at 4° C., and allowed to stay overnight, and then blocked with 5% glycine. […] After addition of the HRP substrate, the absorbance at 450 nm was measured on an ELISA plate reader (Bio-Rad).

[3] = Stability of lipid nanoparticles at 25° C., DLS particle size and PDI; format: physicochemical
Protocol: as §1
(§4) Preparation of Lipid Nanoparticles: The Formulation Method 1 was Used to Prepare LNPs for Subcutaneous Administration.
Characterization of lipid nanoparticles: The particle size and PDI of the prepared lipid nanoparticles were measured by Nano-ZSZEN 3600 (Malvern). 40 μL of the LNP solution was taken for particle size measurement with circulation for three times, 30 seconds for each circulation.
(§5) The particle size measurements were carried out on the day of preparation (week 0), and after one week (week 1), two weeks (week 2), and four weeks (week 4) of storage at 25° C., and the expression intensities of Fluc mRNA delivered by subcutaneous administration were determined on the day of preparation (week 0) and after four weeks (week 4).

[4] = system: Fluc mRNA; experiment: Activity of lipid nanoparticles of formulation method 2, Fluc mRNA by intramuscular administration; format: in vivo, BALB/c mice
Protocol: as §2, §3
Preparation of Lipid Nanoparticles: LNPs were Prepared Using the Formulation Method 2 for Intramuscular Administration.
The measurement method was the same as that of Test Example 1.

[5] = system: Fluc mRNA; experiment: Stability of lipid nanoparticles at 25° C., subcutaneous expression of Fluc mRNA; format: in vivo, mice
Protocol: as §1, §3, §4, §5

[6] = system: influenza mRNA vaccine; experiment: In vivo delivery of influenza mRNA vaccine and immunity, IgG ELISA; set-up: species or system BALB/c mice; details: influenza mRNA LNP, injected subcutaneously 0.5 mg/kg Day 0 and Day 7, serum Day 21, FIG. 2
[7] = system: liver; experiment: Targeting assay, fluorescence in liver after intramuscular injection; format: in vivo, mice; details: 15 μg mRNA per animal, 6 h after injection, dissected liver
Protocol: The lipids were mixed with DSPC, CHO-HP, M-DMG2000 (i.e. PEG2000-DMG) in a molar ratio of 50:10:38.5:1.5 and dissolved in absolute ethanol. mRNA was dissolved in a sodium acetate solution (0.2M, pH=5.0). The samples of various prescriptions were prepared at a water phase:alcohol phase=9 ml/min: 3 ml/min by using a microfluidic equipment (MPE-L2) and a chip (SN.000035). The two phases were mixed by injecting them into the microfluidic chip according to the interface requirements, and then the drug solution was loaded into a 100KD dialysis bags, immersed in a beaker containing 1 L dialysis solution and wrapped with aluminum foil, and dialyzed at 100 rpm for 1 h at room temperature, and then the dialysis solution was replaced and the dialysis continued for 1 h.
Formulation of dialysis solution: 1×PBS+8% sucrose solution: 2 packets of 1×PBS powder were taken into a beaker, dissolved with 2 L DEPC water, added with 160 g of sucrose additionally, and mixed to obtain the 1×PBS+8% sucrose solution.
The mass ratio of mRNA:Lipids in the obtained lipid nanoparticles were about 1:10.
Fluorescent protein-encoding mRNA-LNP preparations containing Compound (I-6-II), MC3 or SM102, respectively were prepared by using the formulation method of mRNA lipid nanoparticle (LNP) preparations as described above, selecting a fluorescent protein-encoding mRNA as the mRNA and the compound (I-6-II), MC3 or SM102, respectively as the lipid.
Each preparation to be tested was administered to mice by intramuscular injection, with each animal receiving 15 μg mRNA preparation sample. 6 h after sample injection, the mice were anesthetized by isoflurane inhalation, and injected intraperitoneally with 200 μL of D-Luciferin (concentration 10 mg/ml) luciferase development substrate. […] After development of living imaging of the intramuscularly injected animals, they were immediately dissected, followed by observation of the fluorescence in the liver immediately after the dissection.

[8] = intramuscular injection, formulation method 2, 0.5 mg/kg
[9] = subcutaneous administration, formulation method 1, 0.5 mg/kg
[10] = tail vein administration, formulation method 2, 0.5 mg/kg

Structure (SMILES)	Fluorescence intensity (expression intensity of Fluc mRNA) [1, 8]	Fluorescence intensity (expression intensity of Fluc mRNA) [1, 9]	Fluorescence intensity (expression intensity of Fluc mRNA) [1, 10]	IgG antibody titers [2]	particle size change after four weeks of storage ([3]; 25° C., week 4 versus week 0)	particle size ([3]; preparation day (week 0))	Z-Average ([3]; week 0 (day of preparation))	PDI ([3]; week 1, storage at 25° C.)	Z-Average ([3]; week 1, storage at 25° C.)	PDI ([3]; week 2, storage at 25° C.)	Z-Average ([3]; week 2, storage at 25° C.)	Z-Average ([3]; week 4, storage at 25° C.)	Fluorescence intensity (expression intensity of Fluc mRNA) [4]	Fluc expression change after four weeks ([5]; 25° C., week 4 versus week 0)	Fluc Expression intensities ([5]; week 0, subcutaneous administration)	Fluc Expression intensities ([5]; week 4, storage at 25° C., subcutaneous administration)	IgG antibody titers [6]	fluorescence intensity in liver [7]
CCCCCCCCCCCOC(=O)CCCCCN(CCCCCCCC(=O)OC(CCCCCCCC)CCCCCCCC)C1CC(O)C1 (stereo not drawn) [Compound 2]	1.3E + 07	1.9E + 08	2.9E + 06	comparable to those of MC3 and SM102	–	–	–	–	–	–	–	–	–	–	–	–	–	–
CCCCCCCCCCCOC(=O)CCCCCN(CCCCCCCC(=O)OC(CCCCCCCC)CCCCCCCC)C1CCCC(O)C1 (stereo not drawn) [Compound 7]	3.7E + 07	2.9E + 08	2.9E + 07	stronger immune response	did not increase significantly	about 100 nm	95 nm·days	0.05	105 nm·days	0.06	115 nm·days	120 nm·days	3.7E + 07	did not decrease significantly	2.9E+08	2.6E+08	–	–
CCCCCCCC/C=C\CCCCCCCC(=O)OCCCCCCCCN(CCCCCCOC(=O)C(CCCCCC)CCCCCCCC)C1CCCC(O)C1 (stereo not drawn) [Compound 10]	–	1.1E + 07	–	–	–	–	–	–	–	–	–	–	–	–	–	–	comparable to those of SM102	–
CCCCC/C=C\C/C=C\CCCCCCCCC(CCCCCCCC/C=C\C/C=C\CCCCC)OC(=O)CCCN(C)C [MC3, reference compound]	2.7E + 07	3.7E + 06	2.7E + 07	–	–	–	–	–	–	–	–	–	–	–	–	–	lowest IgG antibody titers	1.23E+05
